Where two headings read alike, the source gives them in different places.
Columns and labels:
MDA-MB-231 cells [1] = test: MTT cytotoxicity/photocytotoxicity test on human TNBC MDA-MB-231 cells; format: cell-based; conditions: for IC50: Homo sapiens
Procedure: The irradiation device used for the irradiation of cell cultures during the assays was a black box equipped with two Philips UVA lamps with an irradiance of 17 mW cm^−2 and a centered emission peak at 365 nm; UVA irradiance was measured using a Waldmann Variocontrol radiometer, equipped with a UVA sensor. The box was maintained at room temperature inside with a fan and the multiwell plates were placed onto a water-refrigerated metal block.
Human triple negative (TNBC) breast MDA-MB-231 carcinoma cells were obtained from American Type Culture Collection (ATCC, Rockville, MD, USA). Human embryonic kidney HEK293 cells were obtained from the European Collection of Cell Cultures (ECACC, Salisbury, UK). Cell lines were maintained in the logarithmic phase at 37 °C in a 5% CO2 atmosphere using the following culture media containing 10% foetal calf serum (Euroclone, Milan, Italy), antibiotics (50 units/mL penicillin and 50 μg/mL streptomycin) and 2 mM l-glutamine: (i) RPMI-1640 medium (Euroclone, Milan, Italy) for MDA-MB-231 4 cells; (ii) DMEM (Euroclone, Milan, Italy) for HEK293 cells.
Cells (5–8 × 10^3 cells/well, dependent upon the growth characteristics of the cell line) were seeded in 96-well microplates in growth medium (100 μL). After 24 h, the medium was removed and replaced with a fresh one containing the compound to be studied at the appropriate concentration. Triplicate cultures were established for each treatment. For photocytotoxicity studies, after 1 h of incubation the medium was replaced with PBS and cells were treated with 2.0 J cm^−2 of UVA light. After irradiation, PBS was replaced with complete proliferation media. For pre-irradiation studies, instead, compounds in PBS were irradiated with 2.0 J cm^−2 of UVA light and subsequently cells were treated with pre-irradiated solutions. Following 24 h, each well was treated with 10 μL of a 5 mg/mL MTT saline solution, and following 5 h of incubation, 100 μL of a sodium dodecyl sulfate (SDS) solution in HCl 0.01 M were added. After an overnight incubation, cell growth inhibition was detected by measuring the absorbance of each well at 570 nm using a Bio-Rad 680 microplate reader. Mean absorbance for each drug dose was expressed as a percentage of the control untreated well absorbance and plotted against drug concentration. IC50 values, the drug concentrations that reduce the mean absorbance at 570 nm to 50% of those in the untreated control wells, were calculated by the four-parameter logistic (4-PL) model. Evaluation was based on means from at least four independent experiments.
The new synthetized pyrrolo[1,2-h][1,7]naphthyridinones 7 and pyrido[2,3-c]pyrrolo[1,2-a]azepinones 8 were screened for their cytotoxicity (in the dark) and photocitotoxicity (upon UVA light irradiation at 2.0 J/cm^2) profile on human TNBC cells, MDA-MB-231. The cytotoxicity/photocytotoxicity parameters, expressed in terms of IC50 values obtained by MTT test after 24 h of drug-exposure, are listed in Table 2.

MDA-MB-231 cells [2] = test: Mitochondrial membrane potential (Mito-ID kit); format: cell-based, human; conditions: MDA-MB-231, UVA 2.0 J/cm^2; CCCP positive control
Procedure: The ΔΨ was assayed using the Mito-ID® Membrane Potential Kit according to the manufacturer’s instructions (Enzo Life Sciences, Farmingdale, NY, USA) as previously described. Briefly, MDA-MB-231 cells (8 × 10^3 per well) were seeded in 96-well plates; after 24 h, cells were washed with PBS and loaded with Mito-ID Detection Reagent for 30 min at 37 °C in the dark. Afterwards, cells were incubated with increasing concentrations of tested compounds for 90 min and after that exposed to UVA light (2.0 J/cm^2). CCCP (Carbonyl cyanide 3-chlorophenyl-hydrazone) was used as positive control. Fluorescence intensity was estimated using a VICTOR X3 (PerkinElmer, USA) plate reader at 490 (excitation) and 590 nm (emission).
Induction of ROS production can in turn prompt the collapse of mitochondrial membrane potential as well as loss of mitochondrial integrity and functioning. […] MDA-MB-231 TNBC cells were treated with tested compounds upon UVA irradiation and the percentage of cells with hypopolarized mitochondrial membrane potential was determined fluorometrically by means of the Mito-ID® Membrane Potential Kit.
Fig. 5 Effects on mitochondrial membrane potential (A) and cell death induction (B) in human breast MDA-MB-231 cancer cells. A Cells were treated with 7h and 8e and stained with TMRM (10 nM). Fluorescence was estimated at 490 nm (excitation) and 590 nm (emission). Data are the means of five independent experiments. Error bars indicate S.D. * P < 0.05. B Cells were treated with concentrations of 7h and 8e equal to IC50 for 24 h and stained with the fluorescent dyes Hoechst 33342 and PI

MDA-MB-231 cells [3] = test: Intracellular ROS production (CM-H2DCFDA) under UVA; format: cell-based, human; conditions: MDA-MB-231, 25 µM, 90 min, UVA 2.0 J/cm^2; antimycin 3 µM positive control
Procedure: The production of ROS was measured in MDA-MB-231 cells (10^4 per well) grown for 24 h in a 96-well plate in RPMI medium without phenol red (Merk, Germany). Cells were then washed with PBS and loaded with 10 μM 5-(and-6)-chloromethyl-2′,7′-dichlorodihydrofluorescein diacetate acetyl ester (CM–H2DCFDA) (Molecular Probes-Invitrogen, Eugene, OR) for 45 min, in the dark. Afterwards, cells were washed with PBS and incubated with tested compounds (25 µM) for 90 min and after that exposed to UVA light (2.0 J/cm^2). Fluorescence increase was estimated utilizing the wavelengths of 485 nm (excitation) and 527 nm (emission) in a VICTOR X3 (PerkinElmer, USA) plate reader. Antimycin (3 μM, Merk), a potent inhibitor of Complex III in the electron transport chain, was used as positive control.
ROS production under light (UVA, 2.0 J/cm^2) was evaluated in MDA-MB-231 cell samples treated with increasing concentrations of tested compounds or antimycin, a potent inhibitor of Complex III of mitochondria electron chain, used as a positive control under the same experimental conditions (Fig. 4).
Fig. 4 Cellular ROS production (A) and total thiol redox state (B). A Effect of UVA activated tested compounds (25 µM) or antimycin (3 µM) on hydrogen peroxide formation in MDA-MB-231 cancer cells. B Sulfhydryl content in MDA-MB-231 cancer cells incubated for 24 h with UVA activated tested compounds. The sulfhydryl group amount was determined by the DTNB assay. Error bars indicate S.D

[4] = MDA-MB-231, in the dark, 1 h pre-treatment, recovered for total 24 h, read-out: Dark IC50 (µM) ± S.D
[5] = light or radiation study, MDA-MB-231, 1 h pre-treatment, UVA 2.0 J/cm^2, recovered for total 24 h, read-out: UVA (2.0 J/cm^2) IC50 (µM) ± S.D

| melting point [°C] | Structure (SMILES) | IC50 (MDA-MB-231 cells [1]; [4]) [µM] | IC50 (MDA-MB-231 cells [1]; [5]) [µM] | Cells with depolarized mitochondria (mitochondrial membrane potential) (MDA-MB-231 cells [2]) | Cellular ROS production (hydrogen peroxide formation) (MDA-MB-231 cells [3]) | UVA (2.0 J/cm^2) IC50 (µM) ± S.D (MDA-MB-231 cells [1]; MDA-MB-231, 1 h pre-treatment, UVA 2.0 J/cm^2, recovered for total 24 h) |
| --- | --- | --- | --- | --- | --- | --- |
| 317 to 318 | O=c1[nH]c2c(cc1S(=O)(=O)c1ccccc1)CCn1cccc1-2 [Compound 7a, 3-(benzenesulfonyl)-5,6-dihydropyrrolo[1,2-h][1,7]naphthyridin-2(1H)-one] | > 50 | > 50 | – | – | – |
| – | CCOC(=O)c1ccc2n1CCc1cc(S(=O)(=O)c3ccccc3)c(=O)[nH]c1-2 [Compound 7b, Ethyl 3-(benzenesulfonyl)-2-oxo-1,2,5,6-tetrahydropyrrolo[1,2-h][1,7]naphthyridine-8-carboxylate] | > 50 | 21 ± 0.4 | – | – | – |
| – | CC(C)OC(=O)c1ccc2n1CCc1cc(S(=O)(=O)c3ccccc3)c(=O)[nH]c1-2 [Compound 7c, Propan-2-yl 3-(benzenesulfonyl)-2-oxo-1,2,5,6-tetrahydropyrrolo[1,2-h][1,7]naphthyridine-8-carboxylate] | > 50 | > 50 | – | – | – |
| 268 to 269 | Cn1c2c(cc(S(=O)(=O)c3ccccc3)c1=O)CCn1cccc1-2 [Compound 7d, 1-Methyl-3-(benzenesulfonyl)-5,6-dihydropyrrolo[1,2-h][1,7]naphthyridin-2(1H)-one] | > 50 | > 50 | – | – | – |
| – | CCOC(=O)c1ccc2n1CCc1cc(S(=O)(=O)c3ccccc3)c(=O)n(C)c1-2 [Compound 7e, Ethyl 3-(benzenesulfonyl)-1-methyl-2-oxo-1,2,5,6-tetrahydropyrrolo[1,2-h][1,7]naphthyridine-8-carboxylate] | > 50 | > 50 | did not induce a substantial change in mitochondrial membrane potential | hardly effective in inducing any ROS basal level production increase | – |
| – | CC(C)OC(=O)c1ccc2n1CCc1cc(S(=O)(=O)c3ccccc3)c(=O)n(C)c1-2 [Compound 7f, Propan-2-yl 3-(benzenesulfonyl)-1-methyl-2-oxo-1,2,5,6-tetrahydropyrrolo[1,2-h][1,7]naphthyridine-8-carboxylate] | > 50 | > 50 | – | – | – |
| 210 to 211 | COc1nc2c(cc1S(=O)(=O)c1ccccc1)CCn1cccc1-2 [Compound 7g, 2-methoxy-3-(phenylsulfonyl)-5,6-dihydropyrrolo[1,2-h][1,7]naphthyridine] | > 50 | > 50 | – | – | – |
| – | COc1nc2c(cc1S(=O)(=O)c1ccccc1)CCn1c(C(=O)OC(C)C)ccc1-2 [Compound 7i, Propan-2-yl 3-(benzenesulfonyl)-2-methoxy-5,6-dihydropyrrolo[1,2-h][1,7]naphthyridine-8-carboxylate] | > 50 | 7.9 ± 0.5 | – | – | – |
| 196 to 197 | CCOC(=O)C1(Br)C=CC2=C3NC(=O)C(S(=O)(=O)c4ccccc4)C=C3CCN21 (stereo not drawn) [Compound 7j, Ethyl 3-(benzenesulfonyl)-8-bromo-2-oxo-1,2,5,6-tetrahydropyrrolo[1,2-h][1,7]naphthyridine-8-carboxylate] | – | – | – | – | – |
| 174 to 175 | CC(C)OC(=O)C1(Br)C=CC2=C3NC(=O)C(S(=O)(=O)c4ccccc4)C=C3CCN21 (stereo not drawn) [Compound 7k, Propan-2-yl 3-(benzenesulfonyl)-8-bromo-2-oxo-1,2,5,6-tetrahydropyrrolo[1,2-h][1,7]naphthyridine-8-carboxylate] | – | – | – | – | – |
| – | CCOC(=O)c1ccc2n1CCCc1cc(S(=O)(=O)c3ccccc3)c(=O)[nH]c1-2 [Compound 8a, Ethyl 3-(benzenesulfonyl)-2-oxo-1,5,6,7-tetrahydro-2H-pyrido[2,3-c]pyrrolo[1,2-a]azepine-9-carboxylate] | > 50 | > 50 | – | – | – |
| – | CC(C)OC(=O)c1ccc2n1CCCc1cc(S(=O)(=O)c3ccccc3)c(=O)[nH]c1-2 [Compound 8b, Propan-2-yl 3-(benzenesulfonyl)-2-oxo-1,5,6,7-tetrahydro-2H-pyrido[2,3-c]pyrrolo[1,2-a]azepine-9-carboxylate] | > 50 | > 50 | – | – | – |
| – | CCOC(=O)c1ccc2n1CCCc1cc(S(=O)(=O)c3ccccc3)c(=O)n(C)c1-2 [Compound 8c, Ethyl 3-(benzenesulfonyl)-1-methyl-2-oxo-1,5,6,7-tetrahydro-2H-pyrido[2,3-c]pyrrolo[1,2-a]azepine-9-carboxylate] | > 50 | 24.9 ± 2.8 | – | – | – |
| – | COc1nc2c(cc1S(=O)(=O)c1ccccc1)CCCn1c(C(=O)OC(C)C)ccc1-2 [Compound 8f, Propan-2-yl 3-(benzenesulfonyl)-2-methoxy-6,7-dihydro-5H-pyrido[2,3-c]pyrrolo[1,2-a]azepine-9-carboxylate] | > 50 | 23.7 ± 1.5 | – | – | – |
| 172 to 173 | CCOC(=O)C1(Br)C=CC2=C3NC(=O)C(S(=O)(=O)c4ccccc4)C=C3CCCN21 (stereo not drawn) [Compound 8g, Ethyl 3-(benzenesulfonyl)-9-bromo-2-oxo-1,5,6,7-tetrahydro-2H-pyrido[2,3-c]pyrrolo[1,2-a]azepine-9-carboxylate] | – | – | – | – | – |
| 167 to 168 | CC(C)OC(=O)C1(Br)C=CC2=C3NC(=O)C(S(=O)(=O)c4ccccc4)C=C3CCCN21 (stereo not drawn) [Compound 8h, Propan-2-yl 3-(benzenesulfonyl)-9-bromo-2-oxo-1,5,6,7-tetrahydro-2H-pyrido[2,3-c]pyrrolo[1,2-a]azepine-9-carboxylate] | > 50 | > 50 | – | – | completely ineffective in inhibiting cancer cell proliferation upon irradiation |

From article PMC9701179, “New tricyclic systems as photosensitizers towards triple negative breast cancer cells” (Archives of Pharmacal Research, 2022)
